Read-outs that look alike come from different tables or passages of the source.
Columns and labels:
JAK1 = JAK1 (Homo sapiens (Human), UniProt P23458); assay: LanthaScreen JAK biochemical assay (JAK1)
JAK2 = JAK2 (Homo sapiens (Human), UniProt O60674); assay: LanthaScreen JAK biochemical assay (JAK2)
[1] = tested on: IL-4 induced STAT6 phosphorylation in THP-1 human monocytic cells; assay: Cellular JAK potency assay, THP-1
[2] = IL-4 induced STAT6 phosphorylation, THP-1 cells
[3] = read-out: JAK 1 (pKi) (converted)
[4] = read-out: JAK 2 (pKi) (converted)
[5] = Homo sapiens, THP-1, read-out: THP-1 IL4 pIC50 (converted)

JAK1, sequence (P23458 whole entry): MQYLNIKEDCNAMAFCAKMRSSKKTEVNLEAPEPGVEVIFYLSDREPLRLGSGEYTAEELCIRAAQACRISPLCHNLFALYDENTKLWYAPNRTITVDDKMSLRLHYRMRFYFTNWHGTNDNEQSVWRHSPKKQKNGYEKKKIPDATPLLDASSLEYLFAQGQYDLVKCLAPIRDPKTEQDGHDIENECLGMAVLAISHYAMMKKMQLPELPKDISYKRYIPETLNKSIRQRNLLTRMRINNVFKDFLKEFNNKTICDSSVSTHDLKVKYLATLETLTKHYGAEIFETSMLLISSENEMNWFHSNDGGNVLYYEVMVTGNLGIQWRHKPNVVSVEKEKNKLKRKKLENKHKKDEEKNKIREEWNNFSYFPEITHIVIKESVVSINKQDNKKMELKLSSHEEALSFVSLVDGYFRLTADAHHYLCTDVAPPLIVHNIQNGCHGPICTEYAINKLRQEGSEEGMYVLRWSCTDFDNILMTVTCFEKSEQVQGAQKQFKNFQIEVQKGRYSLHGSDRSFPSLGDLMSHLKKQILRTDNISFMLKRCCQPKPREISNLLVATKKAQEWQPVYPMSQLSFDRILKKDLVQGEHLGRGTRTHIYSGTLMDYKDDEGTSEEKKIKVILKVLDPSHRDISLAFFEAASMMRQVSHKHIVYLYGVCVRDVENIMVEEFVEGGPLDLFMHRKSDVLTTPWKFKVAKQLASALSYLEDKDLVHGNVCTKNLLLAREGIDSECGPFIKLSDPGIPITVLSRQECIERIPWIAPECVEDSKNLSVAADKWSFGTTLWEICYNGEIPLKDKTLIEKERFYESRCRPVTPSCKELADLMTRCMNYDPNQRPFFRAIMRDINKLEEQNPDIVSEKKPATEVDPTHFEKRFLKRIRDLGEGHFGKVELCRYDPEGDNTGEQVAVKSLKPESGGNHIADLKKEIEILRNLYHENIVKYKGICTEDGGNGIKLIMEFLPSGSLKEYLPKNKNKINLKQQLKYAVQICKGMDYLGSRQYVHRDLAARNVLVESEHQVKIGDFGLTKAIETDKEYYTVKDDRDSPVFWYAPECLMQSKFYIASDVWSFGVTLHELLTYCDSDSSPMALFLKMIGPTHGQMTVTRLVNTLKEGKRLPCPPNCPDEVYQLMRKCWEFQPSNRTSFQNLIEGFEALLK
JAK2, sequence (O60674 whole entry): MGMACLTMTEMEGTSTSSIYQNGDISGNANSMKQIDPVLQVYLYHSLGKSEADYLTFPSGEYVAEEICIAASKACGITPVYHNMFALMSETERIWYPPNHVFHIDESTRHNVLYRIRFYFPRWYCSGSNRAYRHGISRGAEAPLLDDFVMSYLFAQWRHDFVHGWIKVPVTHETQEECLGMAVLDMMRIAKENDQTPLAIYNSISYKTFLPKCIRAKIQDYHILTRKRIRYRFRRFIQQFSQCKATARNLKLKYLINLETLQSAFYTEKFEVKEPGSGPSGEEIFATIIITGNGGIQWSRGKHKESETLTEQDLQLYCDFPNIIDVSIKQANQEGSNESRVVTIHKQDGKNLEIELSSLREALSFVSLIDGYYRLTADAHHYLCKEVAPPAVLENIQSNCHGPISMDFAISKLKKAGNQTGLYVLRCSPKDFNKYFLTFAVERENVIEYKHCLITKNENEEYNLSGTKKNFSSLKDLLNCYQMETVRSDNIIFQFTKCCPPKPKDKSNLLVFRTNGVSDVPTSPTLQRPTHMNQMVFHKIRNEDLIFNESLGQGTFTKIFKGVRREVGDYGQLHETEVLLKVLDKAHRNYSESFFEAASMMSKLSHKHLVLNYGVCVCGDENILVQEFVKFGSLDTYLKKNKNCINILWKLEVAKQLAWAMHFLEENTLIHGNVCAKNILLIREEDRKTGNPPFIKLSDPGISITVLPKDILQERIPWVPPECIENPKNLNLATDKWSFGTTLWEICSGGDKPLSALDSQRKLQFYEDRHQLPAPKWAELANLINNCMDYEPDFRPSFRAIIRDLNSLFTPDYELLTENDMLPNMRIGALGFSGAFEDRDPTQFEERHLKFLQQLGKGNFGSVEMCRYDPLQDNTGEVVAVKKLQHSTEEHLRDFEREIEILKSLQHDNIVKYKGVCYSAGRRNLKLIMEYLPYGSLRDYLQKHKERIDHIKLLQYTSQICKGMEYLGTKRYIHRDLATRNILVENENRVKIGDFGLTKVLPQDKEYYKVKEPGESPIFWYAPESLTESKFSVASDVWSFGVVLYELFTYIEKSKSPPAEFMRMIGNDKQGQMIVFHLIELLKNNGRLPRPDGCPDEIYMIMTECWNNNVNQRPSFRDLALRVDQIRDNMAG

## Cc1cc(Nc2cc3ncccc3c(N[C@@H]3C[C@H]4CC[C@@H](C3)N4CC(=O)OC(C)C)n2)n[nH]1 [Example 1-4]
JAK1
  JAK 1 (pKi): B (B represents a pKi value between 9 and 10 (Ki between 1 nM and 0.1 nM))
JAK2
  JAK 2 (pKi): B (B represents a pKi value between 9 and 10 (Ki between 1 nM and 0.1 nM))
[1]; [2]
  THP-1 IL4 pIC50: B (B represents a pEC50 value between 6.7 and 7.5 (EC50 between 200 nM and 32 nM))

## Cc1cc(Nc2cc3ncccc3c(N[C@@H]3C[C@H]4CC[C@@H](C3)N4CC(=O)OC(C)(C)C)n2)n[nH]1 [Example 1-5]
JAK1
  JAK 1 (pKi): B (B represents a pKi value between 9 and 10 (Ki between 1 nM and 0.1 nM))
JAK2
  JAK 2 (pKi): B (B represents a pKi value between 9 and 10 (Ki between 1 nM and 0.1 nM))
[1]; [2]
  THP-1 IL4 pIC50: B (B represents a pEC50 value between 6.7 and 7.5 (EC50 between 200 nM and 32 nM))

## CNC(=O)CN1[C@@H]2CC[C@H]1C[C@H](Nc1nc(Nc3cc(C)[nH]n3)cc3ncccc13)C2 [Example 1-7]
JAK1
  JAK 1 (pKi): B (B represents a pKi value between 9 and 10 (Ki between 1 nM and 0.1 nM))
JAK2
  JAK 2 (pKi): B (B represents a pKi value between 9 and 10 (Ki between 1 nM and 0.1 nM))
[1]; [2]
  THP-1 IL4 pIC50: C (C represents a pEC50 value<6.7 (EC50>200 nM))

## Cc1cc(Nc2cc3ncccc3c(N[C@@H]3C[C@H]4CC[C@@H](C3)N4CCC(F)(F)F)n2)n[nH]1 [Example 1-10]
JAK1
  JAK 1 (pKi): B (B represents a pKi value between 9 and 10 (Ki between 1 nM and 0.1 nM))
JAK2
  JAK 2 (pKi): B (B represents a pKi value between 9 and 10 (Ki between 1 nM and 0.1 nM))
[1]; [2]
  THP-1 IL4 pIC50: C (C represents a pEC50 value<6.7 (EC50>200 nM))

## Cc1cc(Nc2cc3ncccc3c(N[C@@H]3C[C@H]4CC[C@@H](C3)N4Cc3cccnc3)n2)n[nH]1 [Example 1-16]
JAK1
  JAK 1 (pKi): B (B represents a pKi value between 9 and 10 (Ki between 1 nM and 0.1 nM))
JAK2
  JAK 2 (pKi): B (B represents a pKi value between 9 and 10 (Ki between 1 nM and 0.1 nM))
[1]; [2]
  THP-1 IL4 pIC50: B (B represents a pEC50 value between 6.7 and 7.5 (EC50 between 200 nM and 32 nM))

## Cc1cc(Nc2cc3ncccc3c(N[C@@H]3C[C@H]4CC[C@@H](C3)N4CC3CCOCC3)n2)n[nH]1 [Example 1-20]
JAK1
  JAK 1 (pKi): B (B represents a pKi value between 9 and 10 (Ki between 1 nM and 0.1 nM))
JAK2
  JAK 2 (pKi): B (B represents a pKi value between 9 and 10 (Ki between 1 nM and 0.1 nM))
[1]; [2]
  THP-1 IL4 pIC50: B (B represents a pEC50 value between 6.7 and 7.5 (EC50 between 200 nM and 32 nM))

## Cc1cc(Nc2cc3ncccc3c(N[C@@H]3C[C@H]4CC[C@@H](C3)N4C3CCOC3=O)n2)n[nH]1 (some centres unmarked) [Example 1-26]
JAK1; [3]
  Ki: 0.1 to 1 nM
JAK2; [4]
  Ki: 0.1 to 1 nM

## Cc1cc(Nc2cc3ncccc3c(N[C@@H]3C[C@H]4CC[C@@H](C3)N4C3CCOC3=O)n2)n[nH]1 (some centres unmarked) [Example 1-27]
JAK1
  JAK 1 (pKi): B (B represents a pKi value between 9 and 10 (Ki between 1 nM and 0.1 nM))
JAK2
  JAK 2 (pKi): B (B represents a pKi value between 9 and 10 (Ki between 1 nM and 0.1 nM))

## Cc1cc(Nc2cc3ncccc3c(N[C@@H]3C[C@H]4CCC[C@@H](C3)N4CC(=O)OC(C)(C)C)n2)n[nH]1 [Example 1-36]
JAK1
  JAK 1 (pKi): B (B represents a pKi value between 9 and 10 (Ki between 1 nM and 0.1 nM))
JAK2
  JAK 2 (pKi): B (B represents a pKi value between 9 and 10 (Ki between 1 nM and 0.1 nM))
[1]; [2]
  THP-1 IL4 pIC50: B (B represents a pEC50 value between 6.7 and 7.5 (EC50 between 200 nM and 32 nM))

## Cc1cc(Nc2cc3ncccc3c(N[C@@H]3C[C@H]4CCC[C@@H](C3)N4Cc3ccncc3)n2)n[nH]1 [Example 1-48]
JAK1
  JAK 1 (pKi): A (A represents a pKi value≥10 (Ki≤0.1 nM))
JAK2
  JAK 2 (pKi): A (A represents a pKi value≥10 (Ki≤0.1 nM))
[1]; [2]
  THP-1 IL4 pIC50: B (B represents a pEC50 value between 6.7 and 7.5 (EC50 between 200 nM and 32 nM))

## Cc1cc(Nc2cc3ncccc3c(N[C@@H]3C[C@H]4CCC[C@@H](C3)N4C3CCCOC3=O)n2)n[nH]1 (some centres unmarked) [Example 1-53]
JAK1
  JAK 1 (pKi): B (B represents a pKi value between 9 and 10 (Ki between 1 nM and 0.1 nM))
JAK2
  JAK 2 (pKi): B (B represents a pKi value between 9 and 10 (Ki between 1 nM and 0.1 nM))
[1]; [2]
  THP-1 IL4 pIC50: B (B represents a pEC50 value between 6.7 and 7.5 (EC50 between 200 nM and 32 nM))

## Cc1cc(Nc2cc3ncccc3c(N[C@@H]3C[C@H]4CCC[C@@H](C3)N4C[C@H]3CCC(=O)O3)n2)n[nH]1 [Example 1-57]
JAK1
  JAK 1 (pKi): B (B represents a pKi value between 9 and 10 (Ki between 1 nM and 0.1 nM))
JAK2
  JAK 2 (pKi): B (B represents a pKi value between 9 and 10 (Ki between 1 nM and 0.1 nM))
[1]; [2]
  THP-1 IL4 pIC50: B (B represents a pEC50 value between 6.7 and 7.5 (EC50 between 200 nM and 32 nM))

## Cc1cc(Nc2cc3ncccc3c(N[C@@H]3C[C@H]4CC[C@@H](C3)N4C(=O)C3(C)CCCC3)n2)n[nH]1 [Example 2-10]
JAK1
  Ki: 0.1 to 1 nM
JAK2; [4]
  Ki: 0.1 to 1 nM
[1]; [5]
  IC50: 31.6 to 200 nM

## Cc1cc(Nc2cc3ncccc3c(N[C@@H]3C[C@H]4CC[C@@H](C3)N4C(=O)Cc3ccccc3)n2)n[nH]1 [Example 2-11]
JAK1
  JAK 1 (pKi): B (B represents a pKi value between 9 and 10 (Ki between 1 nM and 0.1 nM))
JAK2
  JAK 2 (pKi): B (B represents a pKi value between 9 and 10 (Ki between 1 nM and 0.1 nM))
[1]; [2]
  THP-1 IL4 pIC50: B (B represents a pEC50 value between 6.7 and 7.5 (EC50 between 200 nM and 32 nM))

## Cc1cc(Nc2cc3ncccc3c(N[C@@H]3C[C@H]4CC[C@@H](C3)N4C(=O)c3ccccc3)n2)n[nH]1 [Example 2-12]
JAK1; [3]
  Ki: 0.1 to 1 nM
JAK2; [4]
  Ki: 0.1 to 1 nM
[1]; [5]
  IC50: 31.6 to 200 nM

## Cc1cc(Nc2cc3ncccc3c(N[C@@H]3C[C@H]4CC[C@@H](C3)N4C(=O)c3ccncc3)n2)n[nH]1 [Example 2-13]
JAK1; [3]
  Ki: 0.1 to 1 nM
JAK2; [4]
  Ki: 0.1 to 1 nM
[1]; [5]
  IC50: 31.6 to 200 nM

## Cc1cc(Nc2cc3ncccc3c(N[C@@H]3C[C@H]4CC[C@@H](C3)N4C(=O)c3cccnc3)n2)n[nH]1 [Example 2-14]
JAK1
  Ki: 0.1 to 1 nM
JAK2; [4]
  Ki: 0.1 to 1 nM
[1]; [5]
  IC50: > 200 nM

## CCC(=O)N1[C@@H]2CCC[C@H]1C[C@H](Nc1nc(Nc3cc(C)[nH]n3)cc3ncccc13)C2 [Example 2-15]
JAK1
  JAK 1 (pKi): B (B represents a pKi value between 9 and 10 (Ki between 1 nM and 0.1 nM))
JAK2
  JAK 2 (pKi): B (B represents a pKi value between 9 and 10 (Ki between 1 nM and 0.1 nM))
[1]; [2]
  THP-1 IL4 pIC50: A (A represents a pEC50 value≥7.5 (EC50≤32 nM))

## CCOC(=O)N1[C@@H]2CC[C@H]1C[C@H](Nc1nc(Nc3cc(C)[nH]n3)cc3ncccc13)C2 [Example 3-1]
JAK1; [3]
  Ki: 0.1 to 1 nM
JAK2; [4]
  Ki: 0.1 to 1 nM
[1]; [5]
  IC50: < 31.6 nM

## Cc1cc(Nc2cc3ncccc3c(N[C@@H]3C[C@H]4CC[C@@H](C3)N4C(=O)OC(C)C)n2)n[nH]1 [Example 3-2]
JAK1
  Ki: 0.1 to 1 nM
JAK2
  Ki: 0.1 to 1 nM
[1]; [5]
  IC50: < 31.6 nM

## C=CCOC(=O)N1[C@@H]2CC[C@H]1C[C@H](Nc1nc(Nc3cc(C)[nH]n3)cc3ncccc13)C2 [Example 3-4]
JAK1
  JAK 1 (pKi): B (B represents a pKi value between 9 and 10 (Ki between 1 nM and 0.1 nM))
JAK2
  JAK 2 (pKi): B (B represents a pKi value between 9 and 10 (Ki between 1 nM and 0.1 nM))
[1]; [2]
  THP-1 IL4 pIC50: A (A represents a pEC50 value≥7.5 (EC50≤32 nM))

## Cc1cc(Nc2cc3ncccc3c(N[C@@H]3C[C@H]4CCC[C@@H](C3)N4C(=O)OCC(C)C)n2)n[nH]1 [Example 3-7]
JAK1
  JAK 1 (pKi): B (B represents a pKi value between 9 and 10 (Ki between 1 nM and 0.1 nM))
JAK2
  JAK 2 (pKi): B (B represents a pKi value between 9 and 10 (Ki between 1 nM and 0.1 nM))
[1]; [2]
  THP-1 IL4 pIC50: B (B represents a pEC50 value between 6.7 and 7.5 (EC50 between 200 nM and 32 nM))

## C=CCOC(=O)N1[C@@H]2CCC[C@H]1C[C@H](Nc1nc(Nc3cc(C)[nH]n3)cc3ncccc13)C2 [Example 3-8]
JAK1
  JAK 1 (pKi): B (B represents a pKi value between 9 and 10 (Ki between 1 nM and 0.1 nM))
JAK2
  JAK 2 (pKi): B (B represents a pKi value between 9 and 10 (Ki between 1 nM and 0.1 nM))
[1]; [2]
  THP-1 IL4 pIC50: A (A represents a pEC50 value≥7.5 (EC50≤32 nM))

## COCCOC(=O)N1[C@@H]2CCC[C@H]1C[C@H](Nc1nc(Nc3cc(C)[nH]n3)cc3ncccc13)C2 [Example 3-9]
JAK1
  JAK 1 (pKi): B (B represents a pKi value between 9 and 10 (Ki between 1 nM and 0.1 nM))
JAK2
  JAK 2 (pKi): B (B represents a pKi value between 9 and 10 (Ki between 1 nM and 0.1 nM))
[1]; [2]
  THP-1 IL4 pIC50: A (A represents a pEC50 value≥7.5 (EC50≤32 nM))

## Cc1cc(Nc2cc3ncccc3c(N[C@@H]3C[C@H]4CC[C@@H](C3)N4S(=O)(=O)C3CCCC3)n2)n[nH]1 [Example 4-5]
JAK1; [3]
  Ki: 0.1 to 1 nM
JAK2
  Ki: 0.1 to 1 nM
[1]; [5]
  IC50: < 31.6 nM

## Cc1cc(Nc2cc3ncccc3c(N[C@@H]3C[C@H]4CC[C@@H](C3)N4S(=O)(=O)N3CCC3)n2)n[nH]1 [Example 4-6]
JAK1; [3]
  Ki: 0.1 to 1 nM
JAK2
  Ki: 0.1 to 1 nM
[1]; [5]
  IC50: < 31.6 nM

## Cc1cnc2cc(Nc3cc(C)[nH]n3)nc(N[C@@H]3C[C@H]4CCC[C@@H](C3)N4C(=O)OCC(C)C)c2c1 [Example 6-7]
JAK2
  JAK 2 (pKi): B (B represents a pKi value between 9 and 10 (Ki between 1 nM and 0.1 nM))
[1]; THP-1 cells, IL-4 induced STAT6 phosphorylation
  THP-1 IL4 pIC50: B (B represents a pEC50 value between 6.7 and 7.5 (EC50 between 200 nM and 32 nM))

## COC(=O)c1cnc2cc(Nc3cc(C)[nH]n3)nc(N[C@@H]3C[C@H]4CC[C@@H](C3)N4C(=O)C(F)F)c2c1 [Example 6-37]
JAK1; [3]
  Ki: 0.1 to 1 nM
JAK2; [4]
  Ki: 0.1 to 1 nM
